Measured values from ChEMBL document CHEMBL3112450, “Synthesis and in vitro antitumor evaluation of primary amine substituted quinazoline linked benzimidazole” (Bioorg Med Chem Lett, 2014).

Columns and labels:
Format in all cases: functional
[1] = tested on: HCT-15; test: Cytotoxicity against human HCT15 cells assessed as cell growth at 10^-5 M after 48 hrs by SRB assay; details: HCT-15, 48 h, read-out: Activity
[2] = Cytotoxicity against human Hs578T cells assessed as cell growth at 10^-5 M after 48 hrs by SRB assay; details: Hs-578T, read-out: Activity
[3] = tested on: HL-60(TB); test: Cytotoxicity against human HL-60(TB) cells assessed as cell growth at 10^-5 M after 48 hrs by SRB assay; details: HL-60, 48 h, read-out: Activity
[4] = tested on: HT-29; test: Cytotoxicity against human HT-29 cells assessed as cell growth at 10^-5 M after 48 hrs by SRB assay; details: HT-29, 48 h, read-out: Activity
[5] = tested on: NCI-H322M; test: Cytotoxicity against human NCI-H322M cells assessed as cell growth at 10^-5 M after 48 hrs by SRB assay; details: read-out: Activity
[6] = tested on: NCI-H23; test: Cytotoxicity against human NCI-H23 cells assessed as cell growth at 10^-5 M after 48 hrs by SRB assay; details: NCI-H23, 48 h, read-out: Activity
[7] = tested on: SR; test: Cytotoxicity against human SR cells assessed as cell growth at 10^-5 M after 48 hrs by SRB assay; details: read-out: Activity
[8] = Cytotoxicity against human UACC257 cells assessed as cell growth at 10^-5 M after 48 hrs by SRB assay; details: UACC-257, 48 h, read-out: Activity
[9] = tested on: SF-539; test: Cytotoxicity against human SF539 cells assessed as cell growth at 10^-5 M after 48 hrs by SRB assay; details: SF-539, 48 h, read-out: Activity
[10] = tested on: OVCAR-3; test: Cytotoxicity against human OVCAR3 cells assessed as cell growth at 10^-5 M after 48 hrs by SRB assay; details: OVCAR-3, 48 h, read-out: Activity
[11] = tested on: DU-145; test: Cytotoxicity against human DU145 cells assessed as cell growth at 10^-5 M after 48 hrs by SRB assay; details: DU-145, 48 h, read-out: Activity
[12] = tested on: KM12; test: Cytotoxicity against human KM12 cells assessed as cell growth at 10^-5 M after 48 hrs by SRB assay; details: KM12, 48 h, read-out: Activity
[13] = Cytotoxicity against human OVCAR4 cells assessed as cell growth at 10^-5 M after 48 hrs by SRB assay; details: OVCAR-4, 48 h, read-out: Activity
[14] = tested on: IGROV-1; test: Cytotoxicity against human IGROV1 cells assessed as cell growth at 10^-5 M after 48 hrs by SRB assay; details: IGROV-1, 48 h, read-out: Activity
[15] = tested on: U-251; test: Cytotoxicity against human U251 cells assessed as cell growth at 10^-5 M after 48 hrs by SRB assay; details: U-251, 48 h, read-out: Activity
[16] = tested on: PC-3; test: Cytotoxicity against human PC3 cells assessed as cell growth at 10^-5 M after 48 hrs by SRB assay; details: PC-3, 48 h, read-out: Activity
[17] = tested on: M14; test: Cytotoxicity against human M14 cells assessed as cell growth at 10^-5 M after 48 hrs by SRB assay; details: M14, 48 h, read-out: Activity
[18] = tested on: RXF 393; test: Cytotoxicity against human RXF393 cells assessed as cell growth at 10^-5 M after 48 hrs by SRB assay; details: RXF 393, 48 h, read-out: Activity
[19] = tested on: SN12C; test: Cytotoxicity against human SN12C cells assessed as cell growth at 10^-5 M after 48 hrs by SRB assay; details: read-out: Activity
[20] = tested on: CAKI-1; test: Cytotoxicity against human Caki1 cells assessed as cell growth at 10^-5 M after 48 hrs by SRB assay; details: CAKI-1, 48 h, read-out: Activity
[21] = tested on: SK-MEL-5; test: Cytotoxicity against human SK-MEL-5 cells assessed as cell growth at 10^-5 M after 48 hrs by SRB assay; details: SK-MEL-5, 48 h, read-out: Activity
[22] = tested on: SK-MEL-28; test: Cytotoxicity against human SK-MEL-28 cells assessed as cell growth at 10^-5 M after 48 hrs by SRB assay; details: SK-MEL-28, 48 h, read-out: Activity
[23] = tested on: SF-295; test: Cytotoxicity against human SF295 cells assessed as cell growth at 10^-6 M after 48 hrs by SRB assay; details: SF-295, 48 h, read-out: Activity
[24] = tested on: CCRF-CEM; test: Cytotoxicity against human CCRF-CEM cells after 48 hrs by SRB assay
[25] = Cytotoxicity against human Hs578T cells after 48 hrs by SRB assay; details: Hs-578T
[26] = tested on: MDA-MB-468; test: Cytotoxicity against human MDA-MB-468 cells assessed as cell growth at 10^-7 M after 48 hrs by SRB assay; details: MDA-MB-468, 48 h, read-out: Activity
[27] = tested on: NCI-H322M; test: Cytotoxicity against human NCI-H322M cells after 48 hrs by SRB assay
[28] = tested on: K562; test: Cytotoxicity against human K562 cells assessed as cell growth at 10^-4 M after 48 hrs by SRB assay; details: K562, 48 h, read-out: Activity
[29] = tested on: K562; test: Cytotoxicity against human K562 cells assessed as cell growth at 10^-6 M after 48 hrs by SRB assay; details: K562, 48 h, read-out: Activity
[30] = tested on: K562; test: Cytotoxicity against human K562 cells assessed as cell growth at 10^-8 M after 48 hrs by SRB assay; details: K562, 48 h, read-out: Activity
[31] = tested on: SF-268; test: Cytotoxicity against human SF268 cells assessed as cell growth at 10^-4 M after 48 hrs by SRB assay; details: SF-268, 48 h, read-out: Activity
[32] = tested on: NCI-H322M; test: Cytotoxicity against human NCI-H322M cells assessed as cell growth at 10^-8 M after 48 hrs by SRB assay; details: read-out: Activity
[33] = tested on: SN12C; test: Cytotoxicity against human SN12C cells assessed as cell growth at 10^-6 M after 48 hrs by SRB assay; details: read-out: Activity
[34] = tested on: MDA-MB-468; test: Cytotoxicity against human MDA-MB-468 cells after 48 hrs by SRB assay; details: MDA-MB-468, 48 h
[35] = tested on: SF-268; test: Cytotoxicity against human SF268 cells assessed as cell growth at 10^-8 M after 48 hrs by SRB assay; details: SF-268, 48 h, read-out: Activity
[36] = tested on: PC-3; test: Cytotoxicity against human PC3 cells assessed as cell growth at 10^-8 M after 48 hrs by SRB assay; details: PC-3, 48 h, read-out: Activity
[37] = tested on: NCI-H226; test: Cytotoxicity against human NCI-H226 cells assessed as cell growth at 10^-6 M after 48 hrs by SRB assay; details: NCI-H226, 48 h, read-out: Activity
[38] = tested on: SW-620; test: Cytotoxicity against human SW620 cells assessed as cell growth at 10^-7 M after 48 hrs by SRB assay; details: SW-620, 48 h, read-out: Activity
[39] = tested on: NCI-H522; test: Cytotoxicity against human NCI-H522 cells assessed as cell growth at 10^-4 M after 48 hrs by SRB assay; details: NCI-H522, 48 h, read-out: Activity

Compound C=CCn1c(C)nc2ccc(Nc3nc(Nc4ncccn4)nc4ccccc34)cc21 has a growth at 10 µM [1] of 111%, a growth at 10 µM [2] of 87.7% and a growth at 10 µM [3] of 94%. For the same compound, the growth at 10 µM [4] was 104%, the growth at 10 µM [5] was 100% and the growth at 10 µM [6] was 82.8%. It also gave a growth at 10 µM [7] of 121%, a growth at 10 µM [8] of 101% and a growth at 10 µM [9] of 103%. The growth at 10 µM [10] was 99.3%, the growth at 10 µM [11] was 112% and the growth at 10 µM [12] was 106%. The growth at 10 µM [13] was 85.6%, the growth at 10 µM [14] was 84.1% and the growth at 10 µM [15] was 89.8%. For the same compound, the growth at 10 µM [16] was 89.2%, the growth at 10 µM [17] was 115% and the growth at 10 µM [18] was 114%. For the same compound, the growth at 10 µM [19] was 97.6%, the growth at 10 µM [20] was 75.6% and the growth at 10 µM [21] was 92.9%. The growth at 10 µM [22] was 111%.

For C=CCn1c(C)nc2ccc(Nc3nc(NCCO)nc4ccccc34)cc21, the growth at 10 µM [1] was 113%, the growth at 10 µM [2] was 91.5% and the growth at 10 µM [3] was 114%. The growth at 10 µM [4] was 103%, the growth at 10 µM [5] was 100% and the growth at 10 µM [6] was 92.7%. For the same compound, the growth at 10 µM [7] was 104%, the growth at 10 µM [8] was 100% and the growth at 10 µM [9] was 104%. For the same compound, the growth at 10 µM [10] was 98.3%, the growth at 10 µM [11] was 107% and the growth at 10 µM [12] was 102%. It also gave a growth at 10 µM [13] of 88.4%, a growth at 10 µM [14] of 90.1% and a growth at 10 µM [15] of 98.5%. For the same compound, the growth at 10 µM [16] was 93.8%, the growth at 10 µM [17] was 111% and the growth at 10 µM [18] was 116%. For the same compound, the growth at 10 µM [19] was 87.6%, the growth at 10 µM [20] was 99% and the growth at 10 µM [21] was 96.5%. The growth at 10 µM [22] was 99.3%.

In the case of C=CCn1c(C)nc2cc(Nc3nc(Nc4ccc5nc(C)n(CC=C)c5c4)c4ccccc4n3)ccc21, the growth at 1 µM [23] is reported as 78%, the GI50 [24] is reported as 296 nM and the LC50 [24] is reported as over 100000 nM. For the same compound, the TGI [24] was 769 nM, the growth at 10 µM [1] was -78% and the GI50 [25] was 2160 nM. It also gave an LC50 [25] of over 100000 nM, a TGI [25] of 5160 nM and a growth at 10 µM [2] of -48.1%. The growth at 0.1 µM [26] was 89%, the growth at 10 µM [3] was -70% and the growth at 10 µM [4] was -71%. For the same compound, the GI50 [27] was 717 nM, the LC50 [27] was 4470 nM and the TGI [27] was 2000 nM. For the same compound, the growth at 100 µM [28] was 2%, the growth at 10 µM [5] was -100% and the growth at 10 µM [6] was -69.2%. For the same compound, the growth at 10 µM [7] was -44.2%, the growth at 10 µM [8] was -79.8% and the growth at 1 µM [29] was -45%. The growth at 10 µM [9] was -100%, the growth at 0.01 µM [30] was 103% and the growth at 10 µM [10] was -100%. The growth at 10 µM [11] was -100%, the growth at 100 µM [31] was -82% and the growth at 0.01 µM [32] was 92%. It also gave a growth at 1 µM [33] of 65%, a growth at 10 µM [12] of -100% and a growth at 10 µM [13] of -100%. For the same compound, the GI50 [34] was 216 nM, the LC50 (concentration killing 50% of cells) [34] was over 100000 nM and the TGI [34] was 578 nM. It also gave a growth at 0.01 µM [35] of 95%, a growth at 10 µM [14] of -93.8% and a growth at 10 µM [15] of -90.7%. The growth at 10 µM [16] was -100%, the growth at 0.01 µM [36] was 98% and the growth at 10 µM [17] was -88%. For the same compound, the growth at 10 µM [18] was -97.4%, the growth at 10 µM [19] was -76% and the growth at 1 µM [37] was 89%. For the same compound, the growth at 10 µM [20] was -95%, the growth at 0.1 µM [38] was 98% and the growth at 10 µM [21] was -95.2%. For the same compound, the growth at 100 µM [39] was -24% and the growth at 10 µM [22] was -88%.
